Measurements from patent US20040097549A1, “Method and composition for administering a cyclooxygenase-2 inhibitor” (Pharmacia Corporation, priority 1999, published 2004).

Assays:
[1] = Treatment of a dog with arthritic-related symptoms (Example 7); type: in vivo; settings: 15-year old dog about 25 kg, commercially-available drug therapy for nine months; some worsening noted
Procedure: A 15-year old, black Labrador Retriever, mixed-heritage, neutered-male dog weighing about 25 kg has a history of arthritic-related symptoms that makes it difficult, or impossible, for the dog to stand, walk, or ascend or descend stairs. […] Over a subsequent period of six months, this dog is treated with a cyclooxygenase-2 inhibitor in the manner described as follows.
About 125 mg of a 95% pure, selective cyclooxygenase-2 inhibitor in white crystalline powder form is dispersed in a teaspoon of olive oil which is then spread over the surface of a single slice of commercially-available wheat bread. The bread is cut into quarters, all of which is then fed to the dog. The dog is observed to consume the entire slice of bread. Within ten (10) days of initial feeding of this dog, as described above, there is observed noticeable improvement in alleviation of arthritic-related symptoms. For example, the dog is observed to walk easily, descend stairs, […], and be less lethargic in day-to-day activities.

[2] = Cynomolgus monkeys, orally for six weeks; cited from earlier work

SMILES	improvement in the dog's arthritic-related symptoms [1]	Toxicity [2]
CC(C(=O)O)c1ccc2c(c1)[nH]c1ccc(Cl)cc12 (centres unmarked) [Rimadyl carprofan]	without improvement	–
CN1C(C(=O)Nc2ccccn2)=C(O)c2sc(Cl)cc2S1(=O)=O [lomoxicam]	–	monkeys: 1-2 mg/kg/day
